The values that follow come from ChEMBL document CHEMBL4334494, “Recent advances in the targeting of human DNA ligase I as a potential new strategy for cancer treatment” (Eur J Med Chem, 2019).

Series [1] relates to DLD-1. The series can be described thus: Antiproliferative activity against human DLD1 cells after 48 hrs by MTT assay. In kind it is functional, cell-based. The settings on record: DLD-1, 48 h. For orientation: Tetrazolium assays rely on reduction of a dye to a coloured formazan, in cell work by metabolically active cells.
Series [2] has as its system HepG2. Briefly: Antiproliferative activity against human HepG2 cells after 48 hrs by MTT assay. It counts as functional, cell-based. The settings on record: HepG2, 48 h.
Series [3] relates to MDA-MB-231. Briefly: Antiproliferative activity against human MDA-MB-231 cells after 48 hrs by MTT assay. It counts as functional, cell-based. The settings on record: MDA-MB-231, 48 h.
For series [4], the target named is T1, DNA ligase 1 (Homo sapiens, UniProt P18858). Briefly: Inhibition of human DNA ligase 1 expressed in Escherichia coli BL21DE3RP cells at 50 uM using 52-mer DNA/25-mer DNA/27-mer DNA as substrate after 30 mins by Cyanin3 dye-based fluorescence assay relative to control.
T1 sequence (P18858 whole entry): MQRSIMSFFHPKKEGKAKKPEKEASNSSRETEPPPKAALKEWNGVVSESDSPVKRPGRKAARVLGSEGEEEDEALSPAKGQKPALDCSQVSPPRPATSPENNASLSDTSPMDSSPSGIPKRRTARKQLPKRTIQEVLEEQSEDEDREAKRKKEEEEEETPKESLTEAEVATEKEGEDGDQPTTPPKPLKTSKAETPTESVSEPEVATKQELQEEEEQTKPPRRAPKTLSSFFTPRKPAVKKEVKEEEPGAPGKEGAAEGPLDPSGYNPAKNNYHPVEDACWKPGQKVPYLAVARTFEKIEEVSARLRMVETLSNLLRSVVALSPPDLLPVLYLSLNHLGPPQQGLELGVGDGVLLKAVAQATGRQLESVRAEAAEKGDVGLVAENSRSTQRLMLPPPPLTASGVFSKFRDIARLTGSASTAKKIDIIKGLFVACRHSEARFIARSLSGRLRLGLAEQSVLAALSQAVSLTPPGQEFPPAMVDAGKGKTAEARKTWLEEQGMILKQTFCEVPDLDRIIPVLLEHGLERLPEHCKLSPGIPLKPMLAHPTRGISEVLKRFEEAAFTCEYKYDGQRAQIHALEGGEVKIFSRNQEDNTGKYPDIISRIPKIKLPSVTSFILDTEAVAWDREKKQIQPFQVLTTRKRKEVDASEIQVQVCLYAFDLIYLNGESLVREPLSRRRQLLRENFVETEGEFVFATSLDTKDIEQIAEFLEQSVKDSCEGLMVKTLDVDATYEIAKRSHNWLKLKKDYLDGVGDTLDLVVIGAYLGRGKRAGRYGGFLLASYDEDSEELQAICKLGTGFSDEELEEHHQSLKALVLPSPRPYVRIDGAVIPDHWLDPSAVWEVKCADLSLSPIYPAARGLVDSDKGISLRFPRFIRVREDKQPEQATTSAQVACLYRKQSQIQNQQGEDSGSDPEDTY
The subject of series [5] is HCT-116. The series can be described thus: Antiproliferative activity against human HCT116 cells after 48 hrs by MTT assay. It counts as functional, cell-based. To be noted: HCT-116, 48 h.
The test system of series [6] is HT-29. Briefly: Antiproliferative activity against human HT-29 cells after 48 hrs by MTT assay. In kind it is functional, cell-based. The settings on record: HT-29, 48 h.
For series [7], the system named is HeLa. Briefly: Antiproliferative activity against human HeLa cells after 48 hrs by MTT assay. In kind it is functional, cell-based.
In series [8] the test system is 4T1. The series can be described thus: Antiproliferative activity against mouse 4T1 cells after 48 hrs by MTT assay. In kind it is functional, cell-based. The settings on record: 4T1, 48 h.
The target in series [9] is T1, DNA ligase 1. The series can be described thus: Inhibition of human DNA ligase 1 at 50 uM using 52-mer DNA/25-mer DNA/27-mer DNA as substrate by fluorescence assay relative to control.
The target in series [10] is T1, DNA ligase 1. The series can be described thus: Inhibition of human DNA ligase 1 using 52-mer DNA/25-mer DNA/27-mer DNA as substrate by fluorescence assay.
In series [11] the test system is HepG2. The series can be described thus: Antiproliferative activity against human HepG2 cells at 100 uM relative to control. It counts as functional.
Series [12] relates to A549. Briefly: Antiproliferative activity against human A549 cells at 100 uM relative to control. It counts as functional.
In series [13] the test system is HCT-116. The series can be described thus: Antiproliferative activity against human HCT116 cells at 100 uM relative to control. It counts as functional.
Series [14] concerns DLD-1. Briefly: Antiproliferative activity against human DLD1 cells at 100 uM relative to control. In kind it is functional.
The subject of series [15] is MDA-MB-231. The series can be described thus: Antiproliferative activity against human MDA-MB-231 cells at 100 uM relative to control. It counts as functional.
In series [16] the test system is HEK293. Briefly: Cytotoxicity against HEK293 cells at 100 uM relative to control. It counts as cell-based. To be noted: human, hek293, 100 µM.

What is called IC50 is the concentration that gives 50% inhibition. In general, inhibition refers to the drop in the measured response relative to a control, in per cent.

For the compound `Cc1ccc(/C=C2\CN(C(=S)NCCc3ccccc3)C/C(=C\c3ccc(C)cc3)C2=O)cc1`, the concentration for half-maximal inhibition (IC50) in [1], in series [2], in [3], in [5], in [6] and in series [7] was below 10 µM throughout. Also, the IC50 in series [8] was below 10 µM. For the same compound, the inhibition in [4] was above 75%.
As to `CCOC(=O)N1CCN(CC(=O)Nc2cc(C)nc3ccc(NC(=O)Nc4ccc(Cl)cc4)cc23)CC1`, the inhibition in series [9] stood at 1.5%.
On to `CC1(C)CC[C@]2(C(=O)O)CC[C@]3(C)C(=CC[C@@H]4[C@@]5(C)CC[C@H](O)C(C)(C)[C@@H]5CC[C@]43C)[C@@H]2C1` [OLEANOLIC_ACID], for which half-maximal inhibition in series [10] (IC50) was put at 186 µM.
Still for that read-out and setting: the figure for `CC1(C)CC[C@]2(C(=O)O)CC=C3[C@]4(C)CC[C@H]5C(C)(C)[C@@H](O)CC[C@]5(C)[C@H]4CC[C@@]3(C)[C@@H]2C1` [ALEURITOLIC ACID] is 208 µM.
Turning to `CCCCNC(=S)N1C/C(=C\c2ccccc2C)C(=O)/C(=C/c2ccccc2C)C1`, the IC50 in series [1], in series [2], in series [3], in series [5], in series [6] and in series [7] was below 10 µM each time. The compound further displayed a concentration for half-maximal inhibition (IC50) in series [8] below 10 µM. Moreover, the inhibition in series [4] was above 75%.
In series [9], `COc1cccc(NC(=S)NCC23C=CC(O2)C2C(=O)N(c4ccccc4Cl)C(=O)C23)c1` (stereo not given) gave an inhibition of 22.4%.
The same measure, in the same setting: with `COC(=O)N1CCN(CC(=O)Nc2cc(C)nc3ccc(NC(=O)Nc4ccc(Br)cc4)cc23)CC1` the figure was 10.8%.
For the compound `CCCCNC(=S)N1C/C(=C\c2ccccc2F)C(=O)/C(=C/c2ccccc2F)C1`, the IC50 in series [1], in series [2], in series [3], in [5], in series [6] and in series [7] was below 10 µM throughout. Moreover, the 50% inhibitory concentration (IC50) in series [8] is below 10 µM. The inhibition in series [4] is above 75%.
`O=C1/C(=C/c2ccc(F)cc2)CN(C(=S)NC(=O)c2ccccc2)C/C1=C\c1ccc(F)cc1`: the IC50 in series [1], in series [2], in series [3], in series [5], in series [6] and in [7] was below 10 µM throughout. This compound also gave an IC50 in series [8] below 10 µM. Also, the inhibition in series [4] was above 75%.
Consider `Cc1ccccc1/C=C1\CN(C(=S)NC(=O)c2ccccc2)C/C(=C\c2ccccc2C)C1=O`, for which the IC50 in series [1], in series [2], in series [3], in [5], in series [6] and in series [7] was below 10 µM throughout. The same compound had an IC50 in [8] below 10 µM. This compound also displayed an inhibition in [4] above 75%.
In turn, `COc1cc([N+](=O)[O-])ccc1NC(=S)NCC12C=CC(O1)C1C(=O)N(c3ccc(C)cc3)C(=O)C12` (stereo not given) yielded an inhibition in series [9] of 98.2%.
`C/C=C/C=C1\C=Cc2c(C(=O)OC)coc(=O)c21` [FULVOPLUMIERIN] showed an IC50 in series [10] of 356 µM.
In the case of `C=C1C(=O)OC(CCCCCCCCCCCCC)C1C(=O)O` (stereo not drawn) [(+/-)-Protolichesterinic acid], in series [10], half-maximal inhibition (IC50) was put at 18.5 µM.
On the same count and under the same terms, the figure for `C[C@H]1[C@H](C)CC[C@]2(C(=O)O)CC[C@]3(C)C(=CC[C@@H]4[C@@]5(C)CC[C@H](O)C(C)(C)[C@@H]5CC[C@]43C)[C@H]12` [URSOLIC ACID] is 263 µM; for `O=c1c(O)c(-c2ccc(O)cc2O)oc2cc(O)cc(O)c12` [MORIN] it is 225 µM.
Take `CCCCNC(=S)N1C/C(=C\c2ccc(C)cc2)C(=O)/C(=C/c2ccc(C)cc2)C1`: the half-inhibitory concentration (IC50) in series [1], in series [2], in [3], in [5], in [6] and in series [7] was below 10 µM in each case. The compound also registered a half-inhibitory concentration (IC50) in series [8] below 10 µM. This compound also displayed an inhibition in series [4] above 75%.
`O=C1NC(=O)/C(=C/c2ccc(OCCCCCOc3cccc(C(=O)/C=C/c4ccc5c(c4)OCO5)c3)cc2)S1` showed an inhibition in series [9] of 99.6%.
For the compound `O=c1c(O)c(-c2cc(O)c(O)c(O)c2)oc2cc(O)cc(O)c12` [MYRICETIN], 88 µM corresponded to half-maximal inhibition in series [10] (IC50).
With `CCOC(=O)C1=C(C)NC(=S)NC1c1cc(/C=N/NC(=S)Nc2ccc(Cl)cc2)c(O)c(C(C)(C)C)c1` (stereo not given), the inhibition at 100 µM in series [11], in series [12], in series [13], in series [14] and in series [15] was below 80% each time. The same compound yielded an Activity in series [16] below 80%.
For the compound `CC(=O)c1ccc(NC(=O)Nc2ccc3nc(C)cc(NC(=O)c4ccco4)c3c2)cc1`, the inhibition in series [9] turned out to be 42.4%.
Turning to `COc1cc2c(ccc3c4cc(OC)c(OC)cc4c[n+](C)c23)cc1O` [FAGARONINE], the midpoint of inhibition in series [10], the IC50, lay at 25.9 µM. This lies in the double-digit micromolar range.
In [9], `COc1ccc(N2C(=O)C3C4C=CC(CNC(=S)Nc5ccc(OC)cc5[N+](=O)[O-])(O4)C3C2=O)cc1` (stereo not given) returned an inhibition of 65%.
Same read-out and setting: the figure for `COc1cc([N+](=O)[O-])ccc1NC(=S)NCC12C=CC(O1)C1C(=O)N(c3c(Cl)cccc3Cl)C(=O)C12` (stereo not given) is 75.9%; for `CC(=O)c1ccc(NC(=O)Nc2ccc3nc(C)cc(NC(=O)c4ccccc4)c3c2)cc1` it is 76.2%; for `Cc1cc(NC(=O)CN2CCN(C(=O)OC(C)(C)C)CC2)c2cc(NC(=O)Nc3ccc(C)c(Cl)c3)ccc2n1` it is 61.1%.
Consider `CCOC(=O)C1=C(C)NC(=O)NC1c1cc(/C=N/NC(N)=O)c(O)c(C(C)(C)C)c1` (stereo not given), for which the inhibition at 100 µM in series [11], in series [12], in [13], in series [14] and in series [15] was below 80% each time. In series [16], this compound displayed an Activity below 80%.
For `COc1ccc(NC(=O)Nc2ccc3nc(C)cc(NC(=O)c4ccccc4Cl)c3c2)cc1`, the inhibition in series [9] was found to be 12.2%.
In the case of `CCOC(=O)N1CCN(CC(=O)Nc2cc(C)nc3ccc(NC(=O)Nc4ccc(C)c(Cl)c4)cc23)CC1`, in [9], the inhibition worked out at 98.6%.
Regarding `C[n+]1cc2c3c(ccc2c2ccc4cc5c(cc4c21)OCO5)OCO3` [SANGUINARINE NITRATE], in series [10], the midpoint of inhibition, the IC50, lay at 322 µM.
Take `CCOC(=O)C1=C(C)NC(=O)NC1c1cc(/C=N/NC(=S)NC)c(O)c(C(C)(C)C)c1` (stereo not given): the inhibition at 100 µM in series [11], in [12], in [13], in series [14] and in series [15] was above 80% throughout. In addition, in [16], the Activity is given as above 80%.
`COc1ccc(NC(=S)NCC23C=CC(O2)C2C(=O)N(c4ccccc4)C(=O)C23)c([N+](=O)[O-])c1` (stereo not given) returned an inhibition in [9] of 56.2%.
`COc1cc2c[n+](C)c3c4cc5c(cc4ccc3c2cc1OC)OCO5` [NITIDINE CHLORIDE]: the IC50 in series [10] is 65.1 µM. This lies in the double-digit micromolar range.
In the case of `CCOC(=O)C1=C(C)NC(=O)NC1c1cc(/C=N/NC(N)=S)c(O)c(C(C)(C)C)c1` (stereo not given), the inhibition at 100 µM in [11], in [12], in series [13], in [14] and in series [15] was above 80% throughout. This compound showed an Activity in series [16] above 80%.
